What was measured:
Assay type in all cases: in vivo
VERPE: Veronica persica [1] = assay: Post-emergence herbicidal efficacy at 1280 g/ha, VERPE; conditions: visual rating about 3 weeks after treatment vs untreated controls
Outline: (§1)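 Weeds grown in sandy loam in the greenhouse were sprayed at the one-leaf stage, 2 to 3 weeks after sowing, with WP or EC formulations in water plus 0.5% additive at 600 L/ha. Damage was scored visually about 3 weeks later against untreated controls (0% = like control, 100% = plants dead).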

[2] = system: AMARE: Amaranthus retroflexus; assay: Post-emergence herbicidal efficacy at 1280 g/ha, AMARE; conditions: rated visually after about 3 weeks vs untreated controls, 100% = plants have died, 0% = like control plants
Outline: as §1

[3] = system: DIGSA: Digitaria sanguinalis; assay: Pre-emergence herbicide efficacy at 1280 g/ha, DIGSA; conditions: visual scoring after about 3 weeks vs untreated controls
Outline: (§2)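 Pre-em, sandy loam pots, seeds covered w/ soil. WP/EC formulation, aq. spray onto soil surface, 0.5% additive, 600 L/ha. Greenhouse ~3 wk; visual % vs untreated (0 = control, 100 = dead).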

[4] = system: MATIN: Matricaria inodora; assay: Pre-emergence herbicide efficacy at 1280 g/ha, MATIN; conditions: visual scoring after about 3 weeks vs untreated controls
Source text: (§3) Seeds of mono- and dicotyledonous weed plants were placed in plastic pots in sandy loam soil (doubly sown with one species each of mono- or dicotyledonous weed plants per pot) and covered with soil. The compounds of the invention, formulated in the form of wettable powders (WP) or as emulsion concentrates (EC), were then applied to the surface of the covering soil as aqueous suspension or emulsion with addition of 0.5% additive at a water application rate of 600 litres per hectare (converted). After the treatment, the pots were placed in a greenhouse and kept under good growth conditions for the test plants. After about 3 weeks, the efficacy of the preparations was scored visually in comparison with untreated controls as percentages. For example, 100% activity=the plants have died, 0% activity=like control plants. Tables C1 to C12 below show the effects of selected compounds of the general formula (I) according to Table 1 on various harmful plants and at an application rate corresponding to 1280 g/ha, which were obtained by the trial procedure specified above.

POAAN: Poa annua [5] = assay: Post-emergence herbicidal efficacy at 1280 g/ha, POAAN; conditions: visual rating about 3 weeks after treatment vs untreated controls
Outline: as §1

[6] = system: AMARE: Amaranthus retroflexus; assay: Pre-emergence herbicide efficacy at 1280 g/ha, AMARE; conditions: visual scoring after about 3 weeks vs untreated controls
Outline: as §2

POAAN: Poa annua [7] = assay: Pre-emergence herbicide efficacy at 1280 g/ha, POAAN; conditions: visual scoring after about 3 weeks vs untreated controls
Outline: as §2

STEME: Stellaria media [8] = assay: Pre-emergence herbicide efficacy at 1280 g/ha, STEME; conditions: visual scoring vs untreated controls
Outline: as §2

LOLRI: Lolium rigidum = assay: Pre-emergence herbicide efficacy at 1280 g/ha, LOLRI; conditions: visual scoring after about 3 weeks vs untreated controls
Source text: as §3

SETVI: Setaria viridis [9] = assay: Pre-emergence herbicide efficacy at 1280 g/ha, SETVI; conditions: visual scoring vs untreated controls
Outline: as §2

SETVI: Setaria viridis [10] = assay: Post-emergence herbicidal efficacy at 1280 g/ha, SETVI; conditions: visual rating about 3 weeks after treatment vs untreated controls
Outline: as §1

KCHSC: Kochia scoparia [11] = assay: Post-emergence herbicidal efficacy at 1280 g/ha, KCHSC; conditions: visual rating about 3 weeks after treatment vs untreated controls
Outline: as §1

[12] = system: ABUTH: Abutilon theophrasti; assay: Pre-emergence herbicide efficacy at 1280 g/ha, ABUTH; conditions: visual scoring after about 3 weeks vs untreated controls
Outline: as §2

[13] = system: DIGSA: Digitaria sanguinalis; assay: Post-emergence herbicidal efficacy at 1280 g/ha, DIGSA; conditions: rated visually after about 3 weeks vs untreated controls, 100% = plants have died, 0% = like control plants
Outline: as §1

[14] = system: ABUTH: Abutilon theophrasti; assay: Post-emergence herbicidal efficacy at 1280 g/ha, ABUTH; conditions: rated visually after about 3 weeks vs untreated controls, 100% = plants have died, 0% = like control plants
Outline: as §1

VERPE: Veronica persica [15] = assay: Pre-emergence herbicide efficacy at 1280 g/ha, VERPE; conditions: visual scoring vs untreated controls
Outline: as §2

[16] = system: ECHCG: Echinochloa crus-galli; assay: Pre-emergence herbicide efficacy at 1280 g/ha, ECHCG; conditions: visual scoring after about 3 weeks vs untreated controls
Outline: as §2

KCHSC: Kochia scoparia [17] = assay: Pre-emergence herbicide efficacy at 1280 g/ha, KCHSC; conditions: visual scoring after about 3 weeks vs untreated controls
Outline: as §2

STEME: Stellaria media [18] = assay: Post-emergence herbicidal efficacy at 1280 g/ha, STEME; conditions: visual rating about 3 weeks after treatment vs untreated controls
Outline: as §1

[19] = system: AMARE: Amaranthus retroflexus; assay: Pre-emergence herbicide efficacy at 80 g/ha, AMARE; conditions: scored visually after about 3 weeks
Source text: (§4) Seeds of monocotyledonous and dicotyledonous weed plants and crop plants were placed in plastic or organic planting pots and covered with soil. The compounds of the invention, formulated in the form of wettable powders (WP) or as emulsion concentrates (EC), were then applied to the surface of the covering soil as aqueous suspension or emulsion with addition of 0.5% additive at a water application rate equivalent to 600 l/ha. After the treatment, the pots were placed in a greenhouse and kept under good growth conditions for the test plants. After about 3 weeks, the efficacy of the preparations was scored visually in comparison with untreated controls as percentages. For example, 100% activity=the plants have died, 0% activity=like control plants. Tables D1 to D12 below show the effects of selected compounds of the general formula (I) according to Table 1 on various harmful plants and an application rate corresponding to 80 g/ha, which were obtained by the experimental procedure mentioned above.

VERPE: Veronica persica [20] = assay: Post-emergence herbicidal efficacy at 80 g/ha, VERPE; conditions: visual rating about 3 weeks after treatment vs untreated controls
Experimental: Seeds of monocotyledonous and dicotyledonous weeds and crop plants were placed in sandy loam in plastic or organic planting pots, covered with soil and cultivated in a greenhouse under controlled growth conditions. 2 to 3 weeks after sowing, the test plants were treated at the one-leaf stage. The compounds of the invention, formulated in the form of wettable powders (WP) or as emulsion concentrates (EC), were then sprayed onto the green parts of the plants as aqueous suspension or emulsion with addition of 0.5% additive at a water application rate of 600 l/ha (converted). After the test plants had been kept in the greenhouse under optimum growth conditions for about 3 weeks, the activity of the preparations was rated visually in comparison to untreated controls. For example, 100% activity=the plants have died, 0% activity=like control plants. Tables B1 to B10 below show the effects of selected compounds of the general formula (I) according to Table 1 on various harmful plants and an application rate corresponding to 80 g/ha, which were obtained by the experimental procedure mentioned above.

[21] = system: AMARE: Amaranthus retroflexus; assay: Post-emergence herbicidal efficacy at 80 g/ha, AMARE; conditions: visual rating about 3 weeks after treatment vs untreated controls
Outline: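 Activity is a visual score relative to untreated plants, taken about 3 weeks after treatment, where 100% means plant death and 0% means no difference from control. Weeds in sandy loam were sprayed at the one-leaf stage with an aqueous WP or EC preparation carrying 0.5% additive at 600 l/ha.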

VERPE: Veronica persica [22] = assay: Pre-emergence herbicide efficacy at 80 g/ha, VERPE; conditions: scored visually after about 3 weeks
Source text: as §4

[23] = system: ABUTH: Abutilon theophrasti; assay: Pre-emergence herbicide efficacy at 80 g/ha, ABUTH; conditions: scored visually after about 3 weeks
Source text: as §4

POLCO = assay: Pre-emergence herbicide efficacy at 80 g/ha, POLCO; conditions: Polygonum convolvulus, scored visually after about 3 weeks
Source text: as §4

[24] = system: DIGSA: Digitaria sanguinalis; assay: Pre-emergence herbicide efficacy at 80 g/ha, DIGSA; conditions: scored visually after about 3 weeks
Source text: as §4

Row | Structure (SMILES) | Post-emergence efficacy against VERPE (VERPE: Veronica persica [1]) [%] | Post-emergence efficacy at 1280 g/ha against AMARE in % [2] [%] | Pre-emergence efficacy against DIGSA [3] [%] | Pre-emergence efficacy against MATIN [4] [%] | Pre-emergence efficacy against AMARE [6] [%] | Pre-emergence efficacy against POAAN (POAAN: Poa annua [7]) [%] | Pre-emergence efficacy against STEME in % (STEME: Stellaria media [8]) [%] | Pre-emergence efficacy against SETVI in % (SETVI: Setaria viridis [9]) [%] | Post-emergence efficacy against KCHSC (KCHSC: Kochia scoparia [11]) [%] | Pre-emergence efficacy against ABUTH [12] [%] | Pre-emergence efficacy against VERPE in % (VERPE: Veronica persica [15]) [%] | Pre-emergence efficacy against ECHCG [16] [%] | Pre-emergence efficacy against KCHSC (KCHSC: Kochia scoparia [17]) [%] | Pre-emergence efficacy against AMARE in % [19] [%] | Post-emergence efficacy against AMARE [21] [%] | Pre-emergence efficacy against POLCO in % (POLCO) [%] | other results
1 | Fc1ccc(Oc2ccccc2Cc2ncc(Cl)cn2)cc1 [Example 1-29] | 100 | 90 | 100 | 90 | 100 | 100 | 90 | 100 | 90 | 100 | 100 | 100 |  |  |  |  | Post-emergence efficacy against POAAN (POAAN: Poa annua [5]): 90%; Pre-emergence efficacy against LOLRI (LOLRI: Lolium rigidum): 100%; Post-emergence efficacy against SETVI (SETVI: Setaria viridis [10]): 90%; Post-emergence efficacy at 1280 g/ha against DIGSA in % [13]: 90%; Post-emergence efficacy at 1280 g/ha against ABUTH in % [14]: 90%
2 | N#Cc1cccc(Cc2ncc(Cl)cn2)c1-n1cc(C(F)(F)F)cn1 [Example 1-45] | 100 | 100 | 100 | 90 | 100 | 90 | 100 | 100 | 100 | 100 | 100 | 100 | 100 | 100 |  |  | Post-emergence efficacy against STEME (STEME: Stellaria media [18]): 90%; Post-emergence efficacy against POAAN (POAAN: Poa annua [5]): 90%; Pre-emergence efficacy against LOLRI (LOLRI: Lolium rigidum): 90%; Post-emergence efficacy against SETVI (SETVI: Setaria viridis [10]): 90%; Post-emergence efficacy at 1280 g/ha against DIGSA in % [13]: 90%; Post-emergence efficacy at 1280 g/ha against ABUTH in % [14]: 90%
3 | Fc1cccc(Oc2ncc(Cl)cn2)c1Cc1ncc(Cl)cn1 [Example 1-51] | 100 | 100 | 100 | 100 | 100 | 90 | 100 | 100 | 90 | 100 | 100 | 90 | 100 | 90 | 100 |  | Post-emergence efficacy against VERPE (VERPE: Veronica persica [20]): 100%; Pre-emergence efficacy against VERPE in % (VERPE: Veronica persica [22]): 80%
4 | Fc1cnc(Oc2cccc(F)c2Cc2ncc(Cl)cn2)nc1 [Example 1-52] | 90 | 100 | 100 | 100 | 100 | 100 | 100 | 100 | 90 | 90 | 90 | 90 | 100 | 100 | 80 |  | Pre-emergence efficacy against ABUTH in % [23]: 90%
5 | Fc1cnc(Cc2ccccc2-c2cc(C(F)F)no2)nc1 [Example 1-135] |  |  |  |  |  |  |  |  |  |  |  |  |  | 100 | 100 | 90 | Pre-emergence efficacy against VERPE in % (VERPE: Veronica persica [22]): 95%; Pre-emergence efficacy against ABUTH in % [23]: 95%
6 | Fc1cnc(Cc2cccc(F)c2Oc2ncc(Cl)cn2)nc1 [Example 1-154] |  |  |  |  |  |  |  |  |  |  |  |  |  | 100 | 90 | 80 | 
7 | Fc1cnc(Cc2cccc(Cl)c2Oc2ncc(Cl)cn2)nc1 [Example 1-157] |  |  |  |  |  |  |  |  |  |  |  |  |  | 100 | 80 |  | Pre-emergence efficacy against DIGSA in % [24]: 80%
8 | Cc1cccc(Cc2ncc(F)cn2)c1Oc1ncc(F)cn1 [Example 1-162] |  |  |  |  |  |  |  |  |  |  |  |  |  | 90 |  | 80 | 
9 | Cc1cccc(Cc2ncc(Cl)cn2)c1Oc1ncc(F)cn1 [Example 1-165] |  |  |  |  |  |  |  |  |  |  |  |  |  |  |  | 80 | Pre-emergence efficacy against DIGSA in % [24]: 80%
